In PubChem BioAssay AID256 (DTP/NCI, 2004):
Inconclusive results and toxic doses are left out. Rule for the calls: active = survival T/C of 150% or more; inactive = T/C below 125% in these data.

System: CD2F1 mice, L1210 leukemia ip, survival T/C
Experiment: NCI In Vivo Anticancer Drug Screen. Data for tumor model L1210 Leukemia (intraperitoneal) in CD2F1 (CDF1) mice
Conditions: higher = longer survival
In short: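 Each value reflects a quotient of treated over vehicle control outcomes in mice with a transplanted tumor.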

[1] = endpoint: mean survival time, dose: 100.0 mg/kg/injection, schedule: Q04DX002 (ip), vehicle: saline with Tween-80
[2] = endpoint: mean survival time, dose: 200.0 mg/kg/injection, schedule: Q04DX002 (ip), vehicle: saline with Tween-80
[3] = endpoint: mean survival time, dose: 400.0 mg/kg/injection, schedule: Q04DX002 (ip), vehicle: saline with Tween-80
[4] = endpoint: mean survival time, dose: 100.0 mg/kg/injection, schedule: Q04DX003 (ip), vehicle: saline with Tween-80
[5] = endpoint: mean survival time, dose: 200.0 mg/kg/injection, schedule: Q04DX003 (ip), vehicle: saline with Tween-80

Measured: T/C

CN(C)C(=O)SC1=C(c2c(Cl)cccc2Cl)C(=O)c2ccccc21
inactive: endpoint: median survival time, dose: 25.0 mg/kg/injection, schedule: Q01DX009 (ip), vehicle: Klucel (hydroxypropylcellulose) (HPC) 112 % of control | endpoint: median survival time, dose: 50.0 mg/kg/injection, schedule: Q01DX009 (ip), vehicle: Klucel (hydroxypropylcellulose) (HPC) 112 % of control | endpoint: median survival time, dose: 100.0 mg/kg/injection, schedule: Q01DX009 (ip), vehicle: Klucel (hydroxypropylcellulose) (HPC) 104 % of control | endpoint: median survival time, dose: 200.0 mg/kg/injection, schedule: Q01DX009 (ip), vehicle: Klucel (hydroxypropylcellulose) (HPC) 101 % of control | endpoint: median survival time, dose: 400.0 mg/kg/injection, schedule: Q01DX009 (ip), vehicle: Klucel (hydroxypropylcellulose) (HPC) 108 % of control

C[C@@H]1CC[C@]2(C)CC[C@]3(C)C(=CC[C@@H]4[C@@]5(C)CC[C@@H](OC(=O)c6ccc(O)cc6)C(C)(C)[C@@H]5C[C@H](O)[C@]43C)[C@@H]2[C@H]1C(=O)O
inactive: endpoint: median survival time, dose: 0.06 mg/kg/injection, schedule: Q01DX009 (ip), vehicle: saline with Tween-80 103 % of control | endpoint: median survival time, dose: 0.12 mg/kg/injection, schedule: Q01DX009 (ip), vehicle: saline with Tween-80 111 % of control | endpoint: median survival time, dose: 0.25 mg/kg/injection, schedule: Q01DX009 (ip), vehicle: saline with Tween-80 114 % of control | endpoint: median survival time, dose: 0.5 mg/kg/injection, schedule: Q01DX009 (ip), vehicle: saline with Tween-80 123 % of control | endpoint: median survival time, dose: 1.0 mg/kg/injection, schedule: Q01DX009 (ip), vehicle: saline with Tween-80 107 % of control

CCOC(=O)C1CC(=O)C2/C(=C(\O)c3ccccc3)C=C([N+](=O)[O-])C1C2[N+](=O)[O-] (stereo unspecified)
inactive: [1] 94 % of control | [2] 94 % of control | [3] 96 % of control

O=C(/C=C/c1ccc2c(c1)OCO2)c1ccc(Cl)cc1
inactive: [4] 94 % of control | [5] 89 % of control

CC1C=CC(C)S1 (stereo unspecified)
inactive: endpoint: mean survival time, dose: 100.0 mg/kg/injection, schedule: Q01DX001 (ip), vehicle: saline 100 % of control | [1] 101 % of control | endpoint: mean survival time, dose: 200.0 mg/kg/injection, schedule: Q01DX001 (ip), vehicle: saline 101 % of control | [2] 104 % of control | endpoint: mean survival time, dose: 400.0 mg/kg/injection, schedule: Q01DX001 (ip), vehicle: saline 105 % of control | [3] 112 % of control

COc1cc2c3c(c1)-c1c(ccc(OC)c1OC)CC3N(CCCl)CC2 (stereo unspecified)
inactive: endpoint: mean survival time, dose: 25.0 mg/kg/injection, schedule: Q04DX003 (ip), vehicle: water 98 % of control | endpoint: mean survival time, dose: 50.0 mg/kg/injection, schedule: Q04DX003 (ip), vehicle: water 105 % of control

CCOC(=O)c1c(-c2ccccc2)[nH]c2ccccc2c1=O
inactive: [4] 96 % of control | [5] 98 % of control | endpoint: mean survival time, dose: 400.0 mg/kg/injection, schedule: Q04DX003 (ip), vehicle: saline with Tween-80 95 % of control
